The source of these data is patent US11912686B2 (Gilead Sciences, Inc., priority 2020, dated 2024).

The assay deals with human LPAR1 (Homo sapiens (Human), UniProt Q92633). Nature of the assay: LPAR1 intracellular calcium mobilization assay (antagonist mode, FLIPR). The format is cell-based. The conditions noted are these: CHO-K1 EDG2 cells expressing human LPAR1, LPA 18:2 at EC80 (100 nM), test compound 0.5 nM to 10 μM. A general note: A change in cytosolic calcium serves as a functional read-out for many receptors and channels.
Sequence of human LPAR1 (Q92633 whole entry): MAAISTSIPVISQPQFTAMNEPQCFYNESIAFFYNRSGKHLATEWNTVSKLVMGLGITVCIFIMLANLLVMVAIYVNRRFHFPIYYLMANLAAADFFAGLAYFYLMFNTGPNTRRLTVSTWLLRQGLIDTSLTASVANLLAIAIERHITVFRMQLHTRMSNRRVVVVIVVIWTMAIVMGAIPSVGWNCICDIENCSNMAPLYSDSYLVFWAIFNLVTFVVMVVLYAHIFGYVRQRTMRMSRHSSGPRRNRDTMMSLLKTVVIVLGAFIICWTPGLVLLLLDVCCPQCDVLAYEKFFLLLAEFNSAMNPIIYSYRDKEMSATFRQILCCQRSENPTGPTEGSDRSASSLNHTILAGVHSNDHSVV
By EC50 is commonly meant the concentration needed to bring the measured effect to its halfway point. Turning to `C[C@@H](OC(=O)Nc1c(-c2ccc(NC(=O)C34CC(F)(C3)C4)cn2)nnn1C)c1cccnc1Cl` [Compound 70, (R)-1-(2-chloropyridin-3-yl)ethyl (4-(5-(3-fluorobicyclo[1.1.1]pentane-1-carboxamido)pyridin-2-yl)-1-methyl-1H-1,2,3-triazol-5-yl)carbamate], the EC50 turned out to be 47.8 nM. Under `C[C@@H](OC(=O)Nc1c(-c2ccc(NC(=O)c3cc(F)cnc3F)cn2)nnn1C)c1cc(F)cnc1F` [Compound 241, (R)-1-(2,5-difluoropyridin-3-yl)ethyl (4-(5-(2,5-difluoronicotinamido)pyridin-2-yl)-1-methyl-1H-1,2,3-triazol-5-yl)carbamate] stands 111 nM; under `C[C@@H](OC(=O)Nc1c(-c2ccc(NC(=O)C3(CF)CC3)cn2)nnn1C)c1cccnc1Cl` [Compound 110, (R)-1-(2-chloropyridin-3-yl)ethyl (4-(5-(1-(fluoromethyl)cyclopropane-1-carboxamido)pyridin-2-yl)-1-methyl-1H-1,2,3-triazol-5-yl)carbamate], 68.2 nM; under `C[C@@H](OC(=O)Nc1c(-c2ccc(NC(=O)C3CC(F)(F)C3)cn2)nnn1C)c1cccnc1F` [Compound 171, (R)-1-(2-fluoropyridin-3-yl)ethyl (4-(5-(3,3-difluorocyclobutane-1-carboxamido)pyridin-2-yl)-1-methyl-1H-1,2,3-triazol-5-yl)carbamate], 140 nM. The figure for `C[C@@H](OC(=O)Nc1c(-c2ccc(NC(=O)[C@H]3C[C@@H]3C)cn2)nnn1C)c1cc(F)cnc1F` (mixture of isomers) [Compound 207, (R)-1-(2,5-difluoropyridin-3-yl)ethyl (1-methyl-4-(5-((1RS,2RS)-2-methylcyclopropane-1-carboxamido)pyridin-2-yl)-1H-1,2,3-triazol-5-yl)carbamate] is 41.2 nM.

As for `Cc1nc2cc(C(=O)Nc3ccc(-c4nnn(C)c4NC(=O)O[C@H](C)c4cc(F)cnc4F)nc3)cnc2[nH]1` [Compound 277, (R)-1-(2,5-difluoropyridin-3-yl)ethyl (1-methyl-4-(5-(2-methyl-3H-imidazo[4,5-b]pyridine-6-carboxamido)pyridin-2-yl)-1H-1,2,3-triazol-5-yl)carbamate], the EC50 was 955 nM. For `C[C@@H](OC(=O)Nc1c(-c2ccc(NC(=O)c3ccc(F)nc3)cn2)nnn1C)c1cc(F)cnc1F` [Compound 220, (R)-1-(2,5-difluoropyridin-3-yl)ethyl (4-(5-(6-fluoronicotinamido)pyridin-2-yl)-1-methyl-1H-1,2,3-triazol-5-yl)carbamate], the EC50 worked out at 158 nM. As for `Cc1nc(-c2nnn(C)c2NC(=O)O[C@H](C)c2cc(F)cnc2F)ccc1NC(=O)c1cnc(C(F)(F)F)nc1` [Compound 314, (R)-1-(2,5-difluoropyridin-3-yl)ethyl (1-methyl-4-(6-methyl-5-(2-(trifluoromethyl)pyrimidine-5-carboxamido)pyridin-2-yl)-1H-1,2,3-triazol-5-yl)carbamate], the EC50 was 2.9 nM. For `C[C@@H](OC(=O)Nc1c(-c2ccc(NC(=O)C3(C#N)CC3(C)C)cn2)nnn1C)c1cccnc1Cl` (stereo partly drawn) [Compound 146, (R)-1-(2-chloropyridin-3-yl)ethyl (4-(5-(1-cyano-2,2-dimethylcyclopropane-1-carboxamido)pyridin-2-yl)-1-methyl-1H-1,2,3-triazol-5-yl)carbamate], the EC50 was determined as 271 nM. Under `C[C@@H](OC(=O)Nc1c(-c2ccc(NC(=O)[C@]3(F)C[C@@H](O)C3)cn2)nnn1C)c1cccnc1Cl` [Compound 134, (R)-1-(2-chloropyridin-3-yl)ethyl (4-(5-((1s,3S)-1-fluoro-3-hydroxycyclobutane-1-carboxamido)pyridin-2-yl)-1-methyl-1H-1,2,3-triazol-5-yl)carbamate] stands 449 nM; under `C[C@@H](OC(=O)Nc1c(-c2ccc(NC(=O)C3(C(F)F)CNC3)cn2)nnn1C)c1cc(F)cnc1F` [Compound 298, (R)-1-(2,5-difluoropyridin-3-yl)ethyl (4-(5-(3-(difluoromethyl)azetidine-3-carboxamido)pyridin-2-yl)-1-methyl-1H-1,2,3-triazol-5-yl)carbamate], 1250 nM; under `COCC(=O)Nc1ccc(-c2nnn(C)c2NC(=O)O[C@H](C)c2cccnc2Cl)nc1` [Compound 31, (R)-1-(2-chloropyridin-3-yl)ethyl (4-(5-(2-methoxyacetamido)pyridin-2-yl)-1-methyl-1H-1,2,3-triazol-5-yl)carbamate], 2330 nM. Consider `C[C@@H](OC(=O)Nc1c(-c2ccc(NC(=O)[C@@H]3CCC(=O)N3)cn2)nnn1C)c1cccnc1Cl` [Compound 151, (R)-1-(2-chloropyridin-3-yl)ethyl (1-methyl-4-(5-((S)-5-oxopyrrolidine-2-carboxamido)pyridin-2-yl)-1H-1,2,3-triazol-5-yl)carbamate], for which the EC50 worked out at 3150 nM. The figure for `C[C@@H](OC(=O)Nc1c(-c2ccc(NC(=O)C3CC(F)(F)C3)cn2)nnn1C)c1cc(F)cnc1F` [Compound 28, (R)-1-(2,5-difluoropyridin-3-yl)ethyl (4-(5-(3,3-difluorocyclobutane-1-carboxamido)pyridin-2-yl)-1-methyl-1H-1,2,3-triazol-5-yl)carbamate] is 29.1 nM; for `CCC(=O)Nc1ccc(-c2nnn(C)c2NC(=O)O[C@H](C)c2cccnc2Cl)nc1` [Compound 33, (R)-1-(2-chloropyridin-3-yl)ethyl (1-methyl-4-(5-propionamidopyridin-2-yl)-1H-1,2,3-triazol-5-yl)carbamate] it is 1020 nM. On to `C[C@@H](OC(=O)Nc1c(-c2ccc(NC(=O)[C@H]3C[C@H](C#N)C3)cn2)nnn1C)c1cccnc1Cl` [Compound 127, (R)-1-(2-chloropyridin-3-yl)ethyl (4-(5-((1r,3R)-3-cyanocyclobutane-1-carboxamido)pyridin-2-yl)-1-methyl-1H-1,2,3-triazol-5-yl)carbamate], for which the EC50 is 416 nM. The figure for `C[C@@H](OC(=O)Nc1c(-c2ccc(NC(=O)c3cnc(C(F)(F)F)nc3)c(F)n2)nnn1C)c1cccnc1Cl` [Compound 318, (R)-1-(2-chloropyridin-3-yl)ethyl (4-(6-fluoro-5-(2-(trifluoromethyl)pyrimidine-5-carboxamido)pyridin-2-yl)-1-methyl-1H-1,2,3-triazol-5-yl)carbamate] is 9.5 nM; for `C[C@@H](OC(=O)Nc1c(-c2ccc(NC(=O)C3(C(F)(F)F)CC(=O)C3)cn2)nnn1C)c1cccnc1Cl` [Compound 120, (R)-1-(2-chloropyridin-3-yl)ethyl (1-methyl-4-(5-(3-oxo-1-(trifluoromethyl)cyclobutane-1-carboxamido)pyridin-2-yl)-1H-1,2,3-triazol-5-yl)carbamate] it is 2470 nM. For the molecule `Cc1ncc(C(=O)Nc2ccc(-c3nnn(C)c3NC(=O)O[C@H](C)c3cc(F)cnc3F)nc2)cn1` [Compound 234, (R)-1-(2,5-difluoropyridin-3-yl)ethyl (1-methyl-4-(5-(2-methylpyrimidine-5-carboxamido)pyridin-2-yl)-1H-1,2,3-triazol-5-yl)carbamate], the EC50 worked out at 136 nM. `C[C@@H](OC(=O)Nc1c(-c2ccc(NC(=O)C(C)(C)C#N)cn2)nnn1C)c1cccnc1Cl` [Compound 129, (R)-1-(2-chloropyridin-3-yl)ethyl (4-(5-(2-cyano-2-methylpropanamido)pyridin-2-yl)-1-methyl-1H-1,2,3-triazol-5-yl)carbamate]: the EC50 came out at 492 nM. On to `COC(=O)Nc1ccc(-c2nnn(C)c2NC(=O)O[C@H](C)c2cccnc2Cl)cc1` [Compound 7, (R)-1-(2-chloropyridin-3-yl)ethyl (4-(4-((methoxycarbonyl)amino)phenyl)-1-methyl-1H-1,2,3-triazol-5-yl)carbamate], for which the EC50 worked out at 315 nM. With `C[C@@H](OC(=O)Nc1c(-c2ccc(NC(=O)N3CC(C#N)C3)cn2)nnn1C)c1cccnc1Cl` [Compound 191, (R)-1-(2-chloropyridin-3-yl)ethyl (4-(5-(3-cyanoazetidine-1-carboxamido)pyridin-2-yl)-1-methyl-1H-1,2,3-triazol-5-yl)carbamate], the EC50 was 620 nM.

As for `C[C@@H]1CCN(C(=O)Nc2ccc(-c3nnn(C)c3NC(=O)O[C@H](C)c3cccnc3Cl)nc2)C1` [Compound 190, (R)-1-(2-chloropyridin-3-yl)ethyl (1-methyl-4-(5-((R)-3-methylpyrrolidine-1-carboxamido)pyridin-2-yl)-1H-1,2,3-triazol-5-yl)carbamate], the EC50 was found to be 359 nM. Regarding `CO[C@H]1C[C@@H](C(=O)Nc2ccc(-c3nnn(C)c3NC(=O)O[C@H](C)c3cccnc3Cl)nc2)C1` [Compound 157, (R)-1-(2-chloropyridin-3-yl)ethyl (4-(5-((1s,3S)-3-methoxycyclobutane-1-carboxamido)pyridin-2-yl)-1-methyl-1H-1,2,3-triazol-5-yl)carbamate], the EC50 was 74.5 nM. Take `C[C@@H](OC(=O)Nc1c(-c2ccc(NC(=O)c3ccc(C(F)(F)F)nc3)c(F)n2)nnn1C)c1cccnc1Cl` [Compound 315, (R)-1-(2-chloropyridin-3-yl)ethyl (4-(6-fluoro-5-(6-(trifluoromethyl)nicotinamido)pyridin-2-yl)-1-methyl-1H-1,2,3-triazol-5-yl)carbamate]: the EC50 was found to be 12.7 nM. Under `C[C@@H](OC(=O)Nc1c(-c2ccc(NC(=O)C34CC(F)(C3)C4)cn2)nnn1C)c1cccnc1F` [Compound 173, (R)-1-(2-fluoropyridin-3-yl)ethyl (4-(5-(3-fluorobicyclo[1.1.1]pentane-1-carboxamido)pyridin-2-yl)-1-methyl-1H-1,2,3-triazol-5-yl)carbamate] stands 181 nM. As for `C[C@@H](OC(=O)Nc1c(-c2ccc(NC(=O)C3(C#N)CN(CC(F)(F)F)C3)cn2)nnn1C)c1cc(F)cnc1F` [Compound 305, (R)-1-(2,5-difluoropyridin-3-yl)ethyl (4-(5-(3-cyano-1-(2,2,2-trifluoroethyl)azetidine-3-carboxamido)pyridin-2-yl)-1-methyl-1H-1,2,3-triazol-5-yl)carbamate], the EC50 is 1000 nM.
